Consider 1 compound from paper PMC3885398, “Evaluation of the Antitumor Effects of BPR1J-340, a Potent and Selective FLT3 Inhibitor, Alone or in Combination with an HDAC Inhibitor, Vorinostat, in AML Cancer” (PLoS ONE, 2014).

Experiment in all cases: Invitrogen SelectScreen kinase profiling / IC50
What all share (format): biochemical

For assay [1], the target named is NTRK1 (TRKA) (Homo sapiens, UniProt P04629). As for the experimental part: (§1) The FLT3 and VEGFR1/2 Kinase-Glo kinase assays were performed as reported by our earlier study. The VEGFR3 activity analysis was conducted using the same protocol described in the VEGFR1/2 assay. The kinase inhibition profiling and inhibitory activity of FLT3-D835Y, CSF1R, and TRKA were determined by Invitrogen SelectScreen® kinase profiling service (Carlsbad, California, USA).
Chain of NTRK1 (TRKA) (P04629 33-796): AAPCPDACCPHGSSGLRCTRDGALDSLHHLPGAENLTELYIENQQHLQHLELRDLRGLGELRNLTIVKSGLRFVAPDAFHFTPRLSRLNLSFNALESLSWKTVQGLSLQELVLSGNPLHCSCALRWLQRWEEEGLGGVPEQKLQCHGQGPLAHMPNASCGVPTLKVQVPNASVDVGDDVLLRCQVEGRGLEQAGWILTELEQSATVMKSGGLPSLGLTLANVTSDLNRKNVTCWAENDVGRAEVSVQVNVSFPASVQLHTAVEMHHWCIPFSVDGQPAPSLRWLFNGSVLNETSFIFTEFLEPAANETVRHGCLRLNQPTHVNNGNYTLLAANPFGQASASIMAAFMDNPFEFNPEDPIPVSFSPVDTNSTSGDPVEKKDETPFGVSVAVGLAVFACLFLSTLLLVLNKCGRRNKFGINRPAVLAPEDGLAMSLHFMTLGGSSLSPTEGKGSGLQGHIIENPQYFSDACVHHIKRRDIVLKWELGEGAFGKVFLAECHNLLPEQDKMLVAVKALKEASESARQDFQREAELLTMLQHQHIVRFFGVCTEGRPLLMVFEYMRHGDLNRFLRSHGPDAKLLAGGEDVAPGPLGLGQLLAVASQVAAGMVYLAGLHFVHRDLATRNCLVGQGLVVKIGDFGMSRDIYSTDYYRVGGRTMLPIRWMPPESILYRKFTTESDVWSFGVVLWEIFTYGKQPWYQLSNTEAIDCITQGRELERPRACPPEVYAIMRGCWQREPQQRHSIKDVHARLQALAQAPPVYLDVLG
(§2) BPR1J-340, a urea-substituted 3-phenyl-1H-5-pyrazolylamine-based compound, was designed through chemical modification of sulfonamide series of derivatives (BPR1J-097 series) by a structure-activity relationship (SAR) study (Fig. 1), [32]. For kinase inhibition specificity screening, BPR1J-340 was tested against 59 protein kinases covering the major oncogenic kinases of human protein kinome. […] In addition, BPR1J-340 inhibited TRKA, which is associated with the growth and metastasis of breast cancers, with an IC50 value of 8 nM. Given the high similarity of the ATP binding pockets of FLT3 and the Aurora kinases, the inhibitory activity toward Aurora A and Aurora B were measured. […] Taken together, BPRJ-340 is a selective kinase inhibitor with in vitro activity against FLT3, VEGFR2, VEGFR3 and TRKA receptor tyrosine kinases.

For assay [2], the target named is T1, FLT3 D835Y (Homo sapiens, UniProt P36888, D835Y).
T1 sequence (P36888 27-993 D835Y): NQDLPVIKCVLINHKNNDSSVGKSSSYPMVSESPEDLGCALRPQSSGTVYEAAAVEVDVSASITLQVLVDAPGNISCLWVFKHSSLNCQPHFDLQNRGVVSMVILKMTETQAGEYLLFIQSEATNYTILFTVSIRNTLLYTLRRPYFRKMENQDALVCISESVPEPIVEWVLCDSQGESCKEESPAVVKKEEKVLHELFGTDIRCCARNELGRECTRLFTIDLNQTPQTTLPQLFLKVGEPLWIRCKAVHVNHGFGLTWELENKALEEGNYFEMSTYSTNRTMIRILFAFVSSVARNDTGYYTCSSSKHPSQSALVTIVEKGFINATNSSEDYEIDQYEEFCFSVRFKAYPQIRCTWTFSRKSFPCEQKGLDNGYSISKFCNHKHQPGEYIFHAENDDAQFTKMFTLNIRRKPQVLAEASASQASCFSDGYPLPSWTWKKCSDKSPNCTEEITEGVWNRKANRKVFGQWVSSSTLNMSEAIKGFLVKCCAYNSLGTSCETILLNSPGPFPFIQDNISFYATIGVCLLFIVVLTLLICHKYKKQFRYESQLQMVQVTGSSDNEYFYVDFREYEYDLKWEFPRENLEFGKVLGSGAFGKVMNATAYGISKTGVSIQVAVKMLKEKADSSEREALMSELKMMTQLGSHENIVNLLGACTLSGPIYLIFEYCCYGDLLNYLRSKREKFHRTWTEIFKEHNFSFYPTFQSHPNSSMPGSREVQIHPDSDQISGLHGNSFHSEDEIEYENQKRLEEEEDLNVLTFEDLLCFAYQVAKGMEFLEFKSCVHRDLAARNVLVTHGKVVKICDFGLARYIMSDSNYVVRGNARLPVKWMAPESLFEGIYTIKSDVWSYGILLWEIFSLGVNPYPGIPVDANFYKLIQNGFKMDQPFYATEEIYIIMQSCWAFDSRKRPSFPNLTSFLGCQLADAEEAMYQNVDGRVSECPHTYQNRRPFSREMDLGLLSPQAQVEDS
Here is the method:
as §1, §2

For assay [3], the target named is CSF1R (FMS) (Homo sapiens, UniProt P07333). Here is the method:
as §1, §2

For orientation: inhibition means the drop in the measured response relative to a control, in per cent. A word on the IC50: it is the midpoint of a concentration-inhibition curve. A low value points to inhibition by little substance.

Chain of CSF1R (FMS) (P07333 20-972): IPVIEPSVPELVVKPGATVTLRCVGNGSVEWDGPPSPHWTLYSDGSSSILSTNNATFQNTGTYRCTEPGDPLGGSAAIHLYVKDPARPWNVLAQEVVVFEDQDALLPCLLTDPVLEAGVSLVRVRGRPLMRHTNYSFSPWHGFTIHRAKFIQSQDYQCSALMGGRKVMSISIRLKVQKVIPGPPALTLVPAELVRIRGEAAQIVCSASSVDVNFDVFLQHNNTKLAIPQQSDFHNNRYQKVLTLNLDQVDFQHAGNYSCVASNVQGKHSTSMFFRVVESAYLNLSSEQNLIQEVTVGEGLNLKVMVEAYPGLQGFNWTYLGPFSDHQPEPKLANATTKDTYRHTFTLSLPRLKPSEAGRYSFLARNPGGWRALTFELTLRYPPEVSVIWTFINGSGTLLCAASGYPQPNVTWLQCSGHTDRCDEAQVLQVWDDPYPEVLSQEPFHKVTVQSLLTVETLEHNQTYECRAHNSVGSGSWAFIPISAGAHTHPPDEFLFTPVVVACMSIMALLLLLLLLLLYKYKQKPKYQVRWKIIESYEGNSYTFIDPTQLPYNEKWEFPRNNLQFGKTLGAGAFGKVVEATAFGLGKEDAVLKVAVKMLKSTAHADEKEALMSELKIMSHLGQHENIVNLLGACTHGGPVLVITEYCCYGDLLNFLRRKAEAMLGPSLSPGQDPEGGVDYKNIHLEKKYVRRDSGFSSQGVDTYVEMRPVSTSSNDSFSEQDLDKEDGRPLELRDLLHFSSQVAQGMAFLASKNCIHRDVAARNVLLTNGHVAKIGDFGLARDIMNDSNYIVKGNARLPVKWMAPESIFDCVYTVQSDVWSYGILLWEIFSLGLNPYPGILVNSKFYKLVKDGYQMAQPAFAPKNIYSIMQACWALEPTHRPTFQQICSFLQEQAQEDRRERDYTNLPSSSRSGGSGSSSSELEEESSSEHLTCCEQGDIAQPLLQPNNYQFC

With `CCc1cc(NC(=O)NCc2ccc(-c3cc(NC(=O)c4ccc(CN5CCN(C)CC5)cc4)[nH]n3)cc2)no1` [BPR1J-340, N1-(3-4-[([(5-ethyl-3-isoxazolyl)amino]carbonylamino)methyl]phenyl-1H-5-pyrazolyl)-4-[(4-methylpiperazino)methyl]benzamide], the inhibition at 0.1 µM in assay [1] (NTRK1 (TRKA), 100 nM) was determined as 89%; in assay [2] (FLT3 D835Y, 100 nM), 78%; in assay [3] (100 nM), 73%. Also, the IC50 in assay [1] (TRKA, Invitrogen SelectScreen kinase assay) is 8 nM; in assay [2] (FLT3-D835Y, Invitrogen SelectScreen kinase assay), 19 nM; in assay [3] (Invitrogen SelectScreen kinase assay) it was 78 nM.
